Experimental data from the Deep4Chem optical property database.
Blank lines part the entries; values can stand above or below the compound they belong to.

Assay: solvent given as SMILES

SMILES: C(=C\c1ccccn1)/c1ccc(N(c2ccc(/C=C/c3ccccn3)cc2)c2ccc(-c3nc4ccccc4nc3-c3ccc(N(c4ccc(/C=C/c5ccccn5)cc4)c4ccc(/C=C/c5ccccn5)cc4)cc3)cc2)cc1
absorption maximum (in C1CCOC1): 383 nm | absorption maximum (in Cc1ccccc1): 378 nm

SMILES: Brc1ccc(N/C=C/C=[NH+]c2ccc(Br)cc2)cc1
absorption maximum (in CS(C)=O): 386 nm

SMILES: CN1C(=CC2=C([O-])C(=O)C2=C(C#N)C#N)Sc2ccccc21
absorption maximum (in CCO): 481 nm

SMILES: O=C1c2cc(F)ccc2-c2cnccc21
absorption maximum (in CC#N): 408.61 nm | absorption maximum (in CCCCCC): 408.61 nm

SMILES: c1ccc(N(c2ccccc2)c2ccc3ccc4c(N(c5ccccc5)c5ccccc5)ccc5ccc2c3c54)cc1
absorption maximum (in Cc1ccccc1): 426 nm | absorption maximum (in ClCCl): 423 nm

SMILES: COC(=O)c1ccc(C#Cc2ccc(N(C)C)cc2)cc1
absorption maximum (in C1CCCCC1): 359.51 nm | absorption maximum (in C1CCOC1): 361.89 nm | absorption maximum (in C1COCCO1): 360.5 nm | absorption maximum (in CC1CCCO1): 354.5 nm | absorption maximum (in CC#N): 360.5 nm | absorption maximum (in CC(C)=O): 362 nm | absorption maximum (in CC(C)CC(C)(C)C): 364.5 nm | absorption maximum (in CC(C)O): 360.5 nm | absorption maximum (in CCCCCCCCCCCCCCCC): 365.5 nm | absorption maximum (in CCCCCCCCCCCCCCCCCl): 370.49 nm | absorption maximum (in CCOC(C)=O): 357 nm | absorption maximum (in CCOCC): 354.5 nm | absorption maximum (in CN(C)C=O): 367.5 nm | absorption maximum (in CO): 359 nm | absorption maximum (in CS(C)=O): 370 nm | absorption maximum (in Cc1ccccc1): 369.49 nm

SMILES: C1=C(c2ccc(-c3cccs3)s2)CCCC1
absorption maximum (in C1CCOC1): 341 nm | absorption maximum (in CC#N): 342 nm | absorption maximum (in CCCCCC): 341 nm | absorption maximum (in CCO): 344 nm | absorption maximum (in OCCOCCO): 345 nm | absorption maximum (in c1ccncc1): 345 nm

SMILES: c1cc2ccc1CCCc1ccc(c3nsnc13)CCC2
absorption maximum (in C1CCCCC1): 378 nm | absorption maximum (in CC#N): 384 nm | absorption maximum (in ClC(Cl)Cl): 384 nm

SMILES: Cc1ccccc1-c1c2ccc(=[N+]3CCOCC3)cc-2oc2cc(N3CCOCC3)ccc12
absorption maximum (in CCO): 556 nm | absorption maximum (in ClCCl): 554 nm

SMILES: Cc1cc(-n2c3ccccc3c3ccccc32)ccc1-c1ccc(S(=O)(=O)c2ccccc2)cc1C
absorption maximum (in Cc1ccccc1): 340 nm

SMILES: CNc1ccc2c(c1)-c1ccccc1C2=O
absorption maximum (in C1CCCCC1): 389 nm | absorption maximum (in CC#N): 424 nm | absorption maximum (in CCO): 436 nm | absorption maximum (in c1ccccc1): 409 nm

SMILES: CC(C)[Si]1(C(C)C)c2cc(N(C)C)ccc2-c2ccc(C(F)(F)F)cc21
absorption maximum (in C1CCCCC1): 331 nm | absorption maximum (in CC#N): 337 nm | absorption maximum (in CCO): 335 nm | absorption maximum (in CCOCC): 334 nm | absorption maximum (in CS(C)=O): 344 nm | absorption maximum (in ClCCl): 338 nm | absorption maximum (in c1ccccc1): 338 nm

SMILES: CCCCCCCCCCn1nnc(-c2ccc(C#Cc3ccc(C#Cc4ccc(-c5nnn(CCCCCCCCCC)n5)cc4)c4nc5c6ccccc6c6ccccc6c5nc34)cc2)n1
absorption maximum (in C1CCOC1): 428 nm | absorption maximum (in Cc1ccccc1): 428 nm | absorption maximum (in ClCCl): 428 nm

SMILES: CC(C)(C)c1cc2c(c(C(C)(C)C)c1)O[B-](F)(F)[n+]1c-2nc(-c2ccccc2)c2cc(Cl)ccc21
absorption maximum (in Cc1ccccc1): 420 nm

SMILES: N#Cc1c(-n2c3ccccc3c3cc(Br)ccc32)c(-n2c3ccccc3c3cc(Br)ccc32)c(C#N)c(-n2c3ccccc3c3cc(Br)ccc32)c1-n1c2ccccc2c2cc(Br)ccc21
absorption maximum (in Cc1ccccc1): 337 nm

SMILES: O=C1Nc2ccccc2/C1=C/C(=O)c1ccc(Cl)cc1Cl
absorption maximum (in C1CCCCC1): 336 nm | absorption maximum (in C1COCCO1): 337 nm | absorption maximum (in CC#N): 334 nm | absorption maximum (in CC(C)(C)O): 339 nm | absorption maximum (in CC(C)O): 339 nm | absorption maximum (in CCCCCC): 334 nm | absorption maximum (in CCCCO): 341 nm | absorption maximum (in CCOC(C)=O): 335 nm | absorption maximum (in CN(C)C=O): 340 nm | absorption maximum (in CO): 339 nm | absorption maximum (in ClCCl): 339 nm | absorption maximum (in O): 340 nm

SMILES: CC1(C)c2ccccc2N(c2ccc(-c3n[n+]4c(o3)-c3ccccc3O[B-]4(F)F)cc2)c2ccccc21
absorption maximum (in C1COCCO1): 361 nm | absorption maximum (in CC(C)=O): 360 nm | absorption maximum (in CCN(CC)CC): 362 nm | absorption maximum (in CCO): 361 nm | absorption maximum (in CCOC(C)=O): 361 nm | absorption maximum (in CS(C)=O): 362 nm | absorption maximum (in Cc1ccccc1): 364 nm | absorption maximum (in ClC(Cl)Cl): 367 nm | absorption maximum (in ClCCCl): 362 nm | absorption maximum (in ClCCl): 383 nm | absorption maximum (in Clc1ccccc1): 369 nm

SMILES: Fc1nc(F)c(F)c(C#Cc2ccccc2C#Cc2c(F)c(F)nc(F)c2F)c1F
absorption maximum (in CC#N): 300 nm

SMILES: Cc1nc(-c2ccc(-n3c4ccccc4c4ccccc43)cc2)cc(-c2ccc(-n3c4ccccc4c4ccccc43)cc2)n1
absorption maximum (in C1CCOC1): 343 nm | absorption maximum (in CN(C)C=O): 343 nm | absorption maximum (in Cc1ccccc1): 355 nm | absorption maximum (in ClC(Cl)Cl): 343 nm

SMILES: Cc1cc(N2c3ccccc3C3(c4ccccc4-c4ccccc43)c3ccccc32)c(C)cc1-c1nc(-c2ccccc2)nc(-c2ccccc2)n1
absorption maximum (in Cc1ccccc1): 382.89 nm

SMILES: CCOC(=O)c1c(-c2c(Cl)c3cc(C)ccc3oc2=O)nn(-c2cccc(Cl)c2)c1C(=O)OCC
absorption maximum (in ClCCl): 331 nm

SMILES: Cc1cc2nc3c(=O)n(C)c(=O)nc-3n(C)c2cc1C
absorption maximum (in CC#N): 444 nm

SMILES: F[B-]1(F)Oc2ccccc2-c2c3c(c4c([n+]21)CCc1ccccc1-4)CCc1ccccc1-3
absorption maximum (in ClCCl): 347 nm

SMILES: O=[N+]([O-])c1ccc[nH]1
absorption maximum (in CO): 336 nm | absorption maximum (in O): 350 nm

SMILES: Cc1c(C)c(N2c3ccccc3Oc3ccccc32)c(C)c(C)c1B(c1c(C)c(C)c(N2c3ccccc3Oc3ccccc32)c(C)c1C)c1c(C)c(C)c(N2c3ccccc3Oc3ccccc32)c(C)c1C
absorption maximum (in CC(C)(C)c1ccc(-n2c3ccc([Si](c4ccccc4)(c4ccccc4)c4ccccc4)cc3c3cc([Si](c4ccccc4)(c4ccccc4)c4ccccc4)ccc32)cc1): 398 nm

SMILES: C=CCNc1ccc2ccc3oc4cc(=[N+](C)C)ccc-4nc3c2c1
absorption maximum (in CC#N): 569 nm | absorption maximum (in CCO): 572 nm | absorption maximum (in ClCCl): 582 nm | absorption maximum (in O): 552 nm

SMILES: CCCCOc1ccc(/C=C/C=C/C=C/c2ccc([N+](=O)[O-])cc2)cc1
absorption maximum (in CC1CCCCC1): 414 nm | absorption maximum (in CC#N): 413 nm | absorption maximum (in Cc1ccccc1): 420 nm | absorption maximum (in ClCCl): 421 nm

SMILES: O=C1c2ccccc2-c2c(-c3ccccc3O)[nH]c(=O)n21
absorption maximum (in CC#N): 393 nm | absorption maximum (in CO): 396 nm | absorption maximum (in ClCCl): 394 nm

SMILES: CC[n+]1nc2cc3c4c(c2c2cc(F)ccc21)CCCN4CCC3
absorption maximum (in O): 494 nm

Other lines, results leading:

absorption maximum (in C1CCCCC1): 405 nm | absorption maximum (in CC#N): 406 nm | absorption maximum (in CO): 405 nm | absorption maximum (in ClCCl): 409 nm
SMILES: COc1c2ccccc2c(OC)c2c1c1ccccc1n2C

absorption maximum (in ClCCl): 513 nm
SMILES: CCCCCCC1(CCCCCC)c2cc(-c3ccc(-c4ccc(-c5ccc(-c6ccc7c(c6)C(CCCCCC)(CCCCCC)c6cc(-n8c9ccccc9c9ccccc98)ccc6-7)s5)c5nsnc45)s3)ccc2-c2ccc(-n3c4ccccc4c4ccccc43)cc21

absorption maximum (in C1CCOC1): 415 nm
SMILES: COc1ccc(-c2cc3c(s2)-c2sc(-c4ccc(OC)cc4)cc2P(c2ccccc2)(c2ccccc2)=[O+][B-]3(c2c(C)cc(C)cc2C)c2c(C)cc(C)cc2C)cc1

absorption maximum (in C1CCOC1): 715 nm | absorption maximum (in CS(C)=O): 727 nm | absorption maximum (in ClCCl): 702 nm
SMILES: COc1cc(OC)cc(C2=C3C(C)=C(I)C(/C=C/c4c[nH]c5ccccc45)=[N+]3[B-](F)(F)n3c(/C=C/c4c[nH]c5ccccc45)c(I)c(C)c32)c1

absorption maximum (in ClC(Cl)Cl): 376 nm
SMILES: c1ccc(-c2c3c(nc4ccccc24)-c2cc4c(cc2CC3)-c2nc3ccccc3c(-c3ccccc3)c2CC4)cc1

absorption maximum (in CC#N): 295 nm
SMILES: COc1ccc(-c2nc3c([nH]2)=C2C=C(Cl)S[C@@]2(C)[C@]2(C)SC(Cl)=CC=32)cc1

absorption maximum (in C1CCOC1): 381 nm | absorption maximum (in CC#N): 381 nm | absorption maximum (in CCCCCCC): 373 nm | absorption maximum (in CS(C)=O): 393 nm
SMILES: C(=C\c1ccncn1)/c1ccc(-c2ccc(N(c3ccccc3)c3ccccc3)cc2)cc1

absorption maximum (in c1cc(-c2cccc(-n3c4ccccc4c4ccccc43)c2)cc(-n2c3ccccc3c3ccccc32)c1): 374 nm
SMILES: N#Cc1c(-n2c3ccccc3c3ccccc32)nc(-n2c3ccccc3c3ccccc32)c(C#N)c1-c1ccccc1

absorption maximum (in ClC(Cl)Cl): 305 nm
SMILES: CCCCc1ccc(-n2c3c4cc(F)ccc4nc(-c4ccc(OC)cc4)c3c3c2c2c(-c4ccc(OC)cc4)nc4ccc(F)cc4c2n3-c2ccc(CCCC)cc2)cc1

absorption maximum (in ClCCl): 410 nm
SMILES: CCCCN(CCCC)c1ccc(C#Cc2cc(C#Cc3cc(C(F)(F)F)cc(C(F)(F)F)c3)c(C#Cc3cc(C(F)(F)F)cc(C(F)(F)F)c3)cc2C#Cc2ccc(N(CCCC)CCCC)cc2)cc1

absorption maximum (in ClCCl): 361 nm
SMILES: c1ccc(-c2nnc(-c3cc(-n4c5ccccc5c5ccccc54)c(-n4c5ccccc5c5ccccc54)cc3-c3nnc(-c4ccccc4)o3)o2)cc1

absorption maximum (in C1CCOC1): 405 nm
SMILES: CCN(CC)c1ccc(-c2nc3c(nc2-c2ccc(B(c4c(C)cc(C)cc4C)c4c(C)cc(C)cc4C)cc2)c2ccccc2n3C)cc1

absorption maximum (in ClCCl): 366 nm
SMILES: CN(C)c1cc(-c2ccc(C#Cc3cc[n+](C)cc3)cc2)cc2ccccc12

absorption maximum (in CC#N): 555 nm | absorption maximum (in CCO): 539 nm | absorption maximum (in CN(C)C=O): 560 nm | absorption maximum (in O): 554 nm
SMILES: CCN(CC)c1ccc2c(-c3ccccc3C(=O)[O-])c3ccc(=[N+](CC)CC)cc-3oc2c1

absorption maximum (in ClCCl): 373 nm
SMILES: CC(C)(C)c1ccc2c(c1)c1cc(C(C)(C)C)ccc1n2-c1ccc(N(c2ccc(-c3ccc4c(c3)C(C)(C)c3cc(-c5ccc(N(c6ccc(-n7c8ccc(C(C)(C)C)cc8c8cc(C(C)(C)C)ccc87)cc6)c6ccc(-n7c8ccc(C(C)(C)C)cc8c8cc(C(C)(C)C)ccc87)cc6)cc5)ccc3-4)cc2)c2ccc(-n3c4ccc(C(C)(C)C)cc4c4cc(C(C)(C)C)ccc43)cc2)cc1

absorption maximum (in ClCCl): 357 nm
SMILES: COc1ccc(-c2cc3c(ccc4sc5ccc6sccc6c5c43)s2)cc1

absorption maximum (in ClCCl): 391 nm
SMILES: N#Cc1ccc(C2=Cc3cc4ccccc4cc3P2(=O)c2ccccc2)cc1 (stereo not drawn)

absorption maximum (in C1CCOC1): 403 nm
SMILES: CC(C)(C)c1ccc(C2=C(c3ccc(N4c5ccccc5C(C)(C)c5ccccc54)cc3)S(=O)(=O)c3c2sc(-c2ccc(N4c5ccccc5C(C)(C)c5ccccc54)cc2)c3-c2ccc(C(C)(C)C)cc2)cc1
